Measured values: US7939263B2, “Compositions and methods for treating and diagnosing cancer” (The Regents of the University of Michigan, priority 2005, dated 2011)

Tested on: PE13 passaged human breast tumor cells
Test: Xenograft tumor growth after gamma secretase inhibition
Type: in vivo
Procedure: A) The average tumor volume from L-685-458 treated (n=5) versus control (n=7) animals is plotted for each day measured over 37 days. B) The tumor volume of individual L-685-458 treated and control mice is plotted for each day measured.
In alternative embodiments, gamma secretase activity was decreased using the small-molecule inhibitor L-685,458 (Yan et al., 2004, J. Neurosci. 24:2942) and the effect on tumor growth was assessed in a xenograft model. 20,000 PE13 passaged human breast tumor cells were injected into the mammary fat pads of NOD/SCID mice. The mice were then injected subcutaneously daily with 9 mg/kg L-685,458 (n=5) or vehicle control (n=7) for 25 days. Starting on day 11, the tumor volume was measured three times a week for a total of 48 days. […] The tumor volumes for individual mice are plotted in FIG. 13B. Thus inhibiting gamma secretase activity by using a small molecule gamma secretase inhibitor predicted to reduce Notch signaling reduced tumor growth.

CC(C)C[C@H](NC(=O)[C@H](Cc1ccccc1)C[C@@H](O)[C@H](Cc1ccccc1)NC(=O)OC(C)(C)C)C(=O)N[C@@H](Cc1ccccc1)C(N)=O [L-685,458]
growth of injected tumor cells (20,000 PE13 cells in mammary fat pads of NOD/SCID mice, 9 mg/kg subcutaneously daily for 25 days (n=5) vs vehicle control (n=7)): significantly inhibited the growth of injected tumor cells | average tumor volume (NOD/SCID mice, 9 mg/kg s.c. daily for 25 days, measured three times a week from day 11, total 48 days, vs vehicle control): reduced compared to control animals throughout the study
